The assay can be described thus: Michaelis-Menten constant was determined against Hepatitis C virus NS3 protease and represented as Km.

The compound `CCCN(NC(=O)[C@H]1CCCN1C(=O)[C@@H](NC(=O)[C@@H](NC(=O)[C@H](CC(=O)O)NC(=O)[C@H](CCC(=O)O)NC(=O)[C@@H](NC(C)=O)[C@@H](C)O)C(C)C)C(C)C)C(=O)Oc1ccc([N+](=O)[O-])cc1` [Azapeptide] had a Ki of 8 µM.

Source of the values: BindingDB's records for doi:10.1016/s0960-894x(02)00102-6 (Schering-Plough Research Institute, 2002).
